Reference: patent US10681909B2, “Herbicidal triazoles” (FMC Corporation, priority 2014, dated 2020)

Assays:
[1] = test system: ducksalad; experiment: Test B flooded paddy test; type: in vivo, Heteranthera limosa; details: 250 g ai/ha, applied to paddy water at 2-leaf stage, visual rating after 13 to 15 d, scale 0 (no effect) to 100 (complete control)
Summary of the method: (§1)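 Pots were flooded to 3 cm above the soil at treatment, and compounds were applied directly into the paddy water. That depth was held throughout. After 13 to 15 d in a greenhouse, plants were rated visually against untreated controls.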

[2] = test system: corn; experiment: Test A postemergence; type: in vivo, Zea mays; details: 0 to 100 scale (0 no effect, 100 complete control), approx. 10 d
Summary of the method: (§2)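 For preemergence, seeds were sown in a loam soil-sand blend and given a directed soil spray of test chemical in a non-phytotoxic solvent mixture with surfactant. For postemergence, plants in pots of the same blend were sprayed with the same formulation at the one- to two-leaf stage, 2 to 10 cm tall.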

[3] = test system: barnyardgrass; experiment: Test A postemergence; type: in vivo, Echinochloa crus-galli; details: 0 to 100 scale (0 no effect, 100 complete control), approx. 10 d
Summary of the method: as §2

[4] = test system: barnyardgrass; experiment: Test A preemergence; type: in vivo, Echinochloa crus-galli; details: 0 to 100 scale (0 no effect, 100 complete control)
Summary of the method: as §2

[5] = test system: rice; experiment: Test C flooded paddy test; type: in vivo, Oryza sativa; details: Flood, applied to paddy water, rating after 13 to 15 d
From the text: (§3) At time of treatment, test pots were flooded to 3 cm above the soil surface, treated by application of test compounds directly to the paddy water, and then maintained at that water depth for the duration of the test. Treated plants and controls were maintained in a greenhouse for 13 to 15 d, after which time all species were compared to controls and visually evaluated. […] A dash (-) response means no test result.

[6] = test system: pigweed; experiment: Test A postemergence; type: in vivo, Amaranthus retroflexus; details: 0 to 100 scale (0 no effect, 100 complete control), approx. 10 d
Summary of the method: as §2

[7] = test system: barnyardgrass; experiment: Test C flooded paddy test; type: in vivo, Echinochloa crus-galli; details: Flood, applied to paddy water, rating after 13 to 15 d
From the text: as §3

[8] = test system: foxtail, giant; experiment: Test A preemergence; type: in vivo, Setaria faberii; details: 0 to 100 scale (0 no effect, 100 complete control)
Summary of the method: as §2

[9] = test system: morningglory; experiment: Test A preemergence; type: in vivo, Ipomoea spp.; details: 0 to 100 scale (0 no effect, 100 complete control)
Summary of the method: as §2

[10] = test system: morningglory; experiment: Test A postemergence; type: in vivo, Ipomoea spp.; details: 0 to 100 scale (0 no effect, 100 complete control), approx. 10 d
Summary of the method: as §2

[11] = test system: ducksalad; experiment: Test C flooded paddy test; type: in vivo, Heteranthera limosa; details: Flood, applied to paddy water, rating after 13 to 15 d
From the text: as §3

[12] = test system: corn; experiment: Test A preemergence; type: in vivo, Zea mays; details: 0 to 100 scale (0 no effect, 100 complete control)
Summary of the method: as §2

[13] = test system: velvetleaf; experiment: Test A postemergence; type: in vivo, Abutilon theophrasti; details: 0 to 100 scale (0 no effect, 100 complete control), approx. 10 d
Summary of the method: as §2

[14] = test system: crabgrass, large; experiment: Test A postemergence; type: in vivo, Digitaria sanguinalis; details: 0 to 100 scale (0 no effect, 100 complete control), approx. 10 d
Summary of the method: as §2

[15] = test system: barnyardgrass; experiment: Test B flooded paddy test; type: in vivo, Echinochloa crus-galli; details: 250 g ai/ha, applied to paddy water at 2-leaf stage, visual rating after 13 to 15 d, scale 0 (no effect) to 100 (complete control)
Summary of the method: as §1

[16] = test system: velvetleaf; experiment: Test A preemergence; type: in vivo, Abutilon theophrasti; details: 0 to 100 scale (0 no effect, 100 complete control)
Summary of the method: as §2

[17] = test system: pigweed; experiment: Test A preemergence; type: in vivo, Amaranthus retroflexus; details: 0 to 100 scale (0 no effect, 100 complete control)
Summary of the method: as §2

[18] = test system: wheat; experiment: Test A postemergence; type: in vivo, Triticum aestivum; details: 0 to 100 scale (0 no effect, 100 complete control), approx. 10 d
Summary of the method: as §2

[19] = test system: crabgrass, large; experiment: Test A preemergence; type: in vivo, Digitaria sanguinalis; details: 0 to 100 scale (0 no effect, 100 complete control)
Summary of the method: as §2

[20] = test system: foxtail, giant; experiment: Test A postemergence; type: in vivo, Setaria faberii; details: 0 to 100 scale (0 no effect, 100 complete control), approx. 10 d
Summary of the method: as §2

[21] = test system: rice; experiment: Test B flooded paddy test; type: in vivo, Oryza sativa; details: 250 g ai/ha, applied to paddy water at 2-leaf stage, visual rating after 13 to 15 d, scale 0 (no effect) to 100 (complete control)
Summary of the method: as §1

[22] = test system: sedge, umbrella; experiment: Test B flooded paddy test; type: in vivo, Cyperus difformis; details: 250 g ai/ha, applied to paddy water at 2-leaf stage, visual rating after 13 to 15 d, scale 0 (no effect) to 100 (complete control)
Summary of the method: as §1

[23] = test system: sedge, umbrella; experiment: Test C flooded paddy test; type: in vivo, Cyperus difformis; details: Flood, applied to paddy water, rating after 13 to 15 d
From the text: as §3

[24] = test system: wheat; experiment: Test A preemergence; type: in vivo, Triticum aestivum; details: 0 to 100 scale (0 no effect, 100 complete control)
Summary of the method: as §2

CCCc1nc(-c2ccc(F)c(F)c2)nn1Cc1ccnc(C(F)(F)F)c1 [Compound 23]
10: Barnyardgrass plant response rating (0 to 100) ([7]; 62 g ai/ha)
95: Plant response rating, Sedge, Umbrella, Flood [22] | Sedge, Umbrella plant response rating (0 to 100) ([23]; 250 g ai/ha)
40: Plant response rating, Wheat ([24]; 500 g ai/ha, approx. 10 d)
85: Sedge, Umbrella plant response rating (0 to 100) ([23]; 62 g ai/ha)
30: Plant response rating, Corn ([2]; 125 g ai/ha) | Ducksalad plant response rating (0 to 100) ([11]; 31 g ai/ha) | Plant response rating, Corn ([12]; 500 g ai/ha, approx. 10 d) | Plant response rating, Velvetleaf ([16]; 125 g ai/ha) | Plant response rating, Wheat ([18]; 125 g ai/ha)
15: Barnyardgrass plant response rating (0 to 100) ([7]; 125 g ai/ha)
70: Plant response rating, Barnyardgrass ([3]; 500 g ai/ha) | Plant response rating, Velvetleaf ([13]; 125 g ai/ha) | Plant response rating, Crabgrass, Large ([14]; 125 g ai/ha) | Plant response rating, Foxtail, Giant ([20]; 125 g ai/ha)
45: Ducksalad plant response rating (0 to 100) ([11]; 62 g ai/ha)
60: Plant response rating, Corn ([2]; 500 g ai/ha)
100: Plant response rating, Barnyardgrass ([4]; 500 g ai/ha, approx. 10 d) | Plant response rating, Pigweed ([6]; 125 g ai/ha) | Plant response rating, Pigweed ([6]; 500 g ai/ha) | Plant response rating, Foxtail, Giant ([8]; 125 g ai/ha) | Plant response rating, Foxtail, Giant ([8]; 500 g ai/ha, approx. 10 d) | Plant response rating, Velvetleaf ([13]; 500 g ai/ha) | Plant response rating, Pigweed ([17]; 125 g ai/ha) | Plant response rating, Pigweed ([17]; 500 g ai/ha, approx. 10 d) | Plant response rating, Crabgrass, Large ([19]; 125 g ai/ha) | Plant response rating, Crabgrass, Large ([19]; 500 g ai/ha, approx. 10 d)
25: Plant response rating, Rice, Flood [21]
50: Plant response rating, Barnyardgrass ([3]; 125 g ai/ha) | Plant response rating, Barnyardgrass ([4]; 125 g ai/ha) | Plant response rating, Morningglory ([9]; 125 g ai/ha) | Plant response rating, Morningglory ([10]; 125 g ai/ha) | Plant response rating, Wheat ([18]; 500 g ai/ha)
80: Plant response rating, Morningglory ([9]; 500 g ai/ha, approx. 10 d) | Ducksalad plant response rating (0 to 100) ([11]; 250 g ai/ha) | Plant response rating, Velvetleaf ([16]; 500 g ai/ha, approx. 10 d) | Sedge, Umbrella plant response rating (0 to 100) ([23]; 31 g ai/ha)
90: Plant response rating, Ducksalad, Flood [1] | Plant response rating, Morningglory ([10]; 500 g ai/ha) | Plant response rating, Crabgrass, Large ([14]; 500 g ai/ha) | Plant response rating, Barnyardgrass, Flood [15] | Plant response rating, Foxtail, Giant ([20]; 500 g ai/ha) | Sedge, Umbrella plant response rating (0 to 100) ([23]; 125 g ai/ha)
0: Rice plant response rating (0 to 100) ([5]; 31 g ai/ha) | Rice plant response rating (0 to 100) ([5]; 62 g ai/ha) | Rice plant response rating (0 to 100) ([5]; 125 g ai/ha) | Rice plant response rating (0 to 100) ([5]; 250 g ai/ha) | Barnyardgrass plant response rating (0 to 100) ([7]; 31 g ai/ha)
20: Barnyardgrass plant response rating (0 to 100) ([7]; 250 g ai/ha) | Plant response rating, Corn ([12]; 125 g ai/ha) | Plant response rating, Wheat ([24]; 125 g ai/ha)
75: Ducksalad plant response rating (0 to 100) ([11]; 125 g ai/ha)
